Experimental data as given in PubChem BioAssay (NCI).
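1) Cells in 96-well plates. 2) Compound, 48 h, 5 concentrations. 3) Linear interpolation between surrounding doses. 4) Unreached endpoint = highest concentration. GI50 is the concentration that inhibits growth by half. Definition used: TGI = concentration required for complete inhibition of growth.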

Legend:
Assay in all cases: inhibition of tumour cell growth, NCI panel, 48 h
786-0 renal = tested on: 786-0 renal
OVCAR-3 ovarian = tested on: OVCAR-3 ovarian
CAKI-1 renal = tested on: CAKI-1 renal
MOLT-4 leukemia = tested on: MOLT-4 leukemia
NCI-H522 lung = tested on: NCI-H522 lung
A549 NSCLC = tested on: A549 NSCLC
NCI-H23 lung = tested on: NCI-H23 lung
HT29 colon = tested on: HT29 colon
A498 renal = tested on: A498 renal
OVCAR-4 ovarian = tested on: OVCAR-4 ovarian

With `COc1cccc(OC(=O)c2ccccc2Nc2ccnc(C(F)(F)F)c2)c1` the GI50 (786-0 renal) was 3.43 µM, the TGI (786-0 renal) was 12.2 µM and the GI50 (OVCAR-3 ovarian) was 1.65 µM. For the same compound, the TGI (OVCAR-3 ovarian) was 10.5 µM, the GI50 (CAKI-1 renal) was 2.68 µM and the TGI (CAKI-1 renal) was 80.2 µM. The GI50 (MOLT-4 leukemia) was 0.692 µM, the TGI (MOLT-4 leukemia) was 4.29 µM and the GI50 (NCI-H522 lung) was 7.61 µM. For the same compound, the TGI (NCI-H522 lung) was greater than 100 µM, the GI50 (A549 NSCLC) was 3.18 µM and the TGI (A549 NSCLC) was 20.7 µM. The GI50 (NCI-H23 lung) was 2.04 µM, the TGI (NCI-H23 lung) was 6.73 µM and the GI50 (HT29 colon) was 3.68 µM. It also gave a TGI (HT29 colon) greater than 100 µM.

Compound `CN(C)c1ccc2nc3ccc(=[N+](C)C)cc-3oc2c1` has a GI50 (786-0 renal) of 16.5 µM, a TGI (786-0 renal) of 90.9 µM and a GI50 (OVCAR-3 ovarian) of 0.4 µM. For the same compound, the TGI (OVCAR-3 ovarian) was 5.09 µM, the GI50 (A498 renal) was 13.7 µM and the TGI (A498 renal) was 41.9 µM. For the same compound, the GI50 (CAKI-1 renal) was 5.92 µM, the TGI (CAKI-1 renal) was 57.6 µM and the GI50 (MOLT-4 leukemia) was 1.76 µM. The TGI (MOLT-4 leukemia) was 5.04 µM, the GI50 (A549 NSCLC) was 2.91 µM and the TGI (A549 NSCLC) was 84.1 µM. For the same compound, the GI50 (NCI-H23 lung) was 0.788 µM, the TGI (NCI-H23 lung) was 5.6 µM and the GI50 (HT29 colon) was 3.38 µM. For the same compound, the TGI (HT29 colon) was 29.3 µM.

In the case of `NCC1(N2CCOCC2)C2CCCC21CO` (centres undefined), the TGI (786-0 renal) is reported as greater than 100 µM, the TGI (OVCAR-3 ovarian) is reported as greater than 100 µM and the TGI (OVCAR-4 ovarian) is reported as greater than 100 µM. It also gave a TGI (CAKI-1 renal) greater than 100 µM, a TGI (MOLT-4 leukemia) greater than 100 µM and a TGI (NCI-H522 lung) greater than 100 µM. The TGI (A549 NSCLC) was greater than 100 µM, the TGI (NCI-H23 lung) was greater than 100 µM and the TGI (HT29 colon) was greater than 100 µM.

`CSc1nnc(CCSc2ccnc3c(C(F)(F)F)cccc23)o1` showed a GI50 (786-0 renal) of 95.3 µM, a TGI (786-0 renal) greater than 100 µM and a GI50 (OVCAR-3 ovarian) of 91.9 µM. The TGI (OVCAR-3 ovarian) was greater than 100 µM, the GI50 (OVCAR-4 ovarian) was 40.7 µM and the TGI (OVCAR-4 ovarian) was greater than 100 µM. The GI50 (CAKI-1 renal) was 31.8 µM, the TGI (CAKI-1 renal) was greater than 100 µM and the GI50 (MOLT-4 leukemia) was 27.7 µM. The TGI (MOLT-4 leukemia) was greater than 100 µM, the GI50 (NCI-H522 lung) was greater than 100 µM and the TGI (NCI-H522 lung) was greater than 100 µM. It also gave a GI50 (A549 NSCLC) greater than 100 µM, a TGI (A549 NSCLC) greater than 100 µM and a GI50 (NCI-H23 lung) greater than 100 µM. The TGI (NCI-H23 lung) was greater than 100 µM, the GI50 (HT29 colon) was greater than 100 µM and the TGI (HT29 colon) was greater than 100 µM.

Work on `COc1ccccc1[N-]C(C1=C([O-])c2ccccc2C1=O)c1ccccc1.COc1ccccc1[N-]C(C1=C([O-])c2ccccc2C1=O)c1ccccc1.[Cu+2]` (centres undefined) yielded a GI50 (786-0 renal) of 7.76 µM, a TGI (786-0 renal) greater than 100 µM and a GI50 (OVCAR-3 ovarian) of 13.8 µM. The TGI (OVCAR-3 ovarian) was 54.2 µM, the GI50 (A498 renal) was 14.7 µM and the TGI (A498 renal) was 53.7 µM. The GI50 (CAKI-1 renal) was 12.7 µM, the TGI (CAKI-1 renal) was 54.5 µM and the GI50 (MOLT-4 leukemia) was 5.98 µM. For the same compound, the TGI (MOLT-4 leukemia) was greater than 100 µM, the GI50 (A549 NSCLC) was 4.63 µM and the TGI (A549 NSCLC) was 52.9 µM. It also gave a GI50 (NCI-H23 lung) of 7.17 µM, a TGI (NCI-H23 lung) of 61.2 µM and a GI50 (HT29 colon) of 18.2 µM. The TGI (HT29 colon) was greater than 100 µM.

Compound `CCC[CH2][Sn]([CH2]CCC)([O]C(C)=O)[O]C(C)=O` has a GI50 (786-0 renal) of 1.48 µM, a TGI (786-0 renal) of 2.83 µM and a GI50 (OVCAR-3 ovarian) of 1.53 µM. The TGI (OVCAR-3 ovarian) was 3.02 µM, the GI50 (OVCAR-4 ovarian) was 1.79 µM and the TGI (OVCAR-4 ovarian) was 3.5 µM. For the same compound, the GI50 (CAKI-1 renal) was 0.638 µM, the TGI (CAKI-1 renal) was 2.23 µM and the GI50 (MOLT-4 leukemia) was 0.505 µM. For the same compound, the TGI (MOLT-4 leukemia) was 4.59 µM, the GI50 (NCI-H522 lung) was 0.147 µM and the TGI (NCI-H522 lung) was 0.324 µM. It also gave a GI50 (A549 NSCLC) of 3.65 µM, a TGI (A549 NSCLC) of 15.3 µM and a GI50 (NCI-H23 lung) of 1.21 µM. It also gave a TGI (NCI-H23 lung) of 2.91 µM, a GI50 (HT29 colon) of 1.7 µM and a TGI (HT29 colon) of 3.53 µM.

For `CC1CC2C(=O)NC(=O)C2c2[nH]c3ccccc3c21` (centres undefined), the TGI (786-0 renal) was greater than 100 µM, the TGI (OVCAR-3 ovarian) was greater than 100 µM and the TGI (OVCAR-4 ovarian) was greater than 100 µM. For the same compound, the TGI (CAKI-1 renal) was greater than 100 µM, the TGI (MOLT-4 leukemia) was greater than 100 µM and the TGI (NCI-H522 lung) was greater than 100 µM. The TGI (A549 NSCLC) was greater than 100 µM, the TGI (NCI-H23 lung) was greater than 100 µM and the TGI (HT29 colon) was greater than 100 µM.

Work on `CN(C)CCCNC(=O)c1cc(NC(=O)CCNS(=O)(=O)c2ccc3c(c2)C(=O)c2ccccc2C3=O)cn1C` yielded a GI50 (786-0 renal) greater than 100 µM, a TGI (786-0 renal) greater than 100 µM and a GI50 (OVCAR-3 ovarian) greater than 100 µM. It also gave a TGI (OVCAR-3 ovarian) greater than 100 µM, a GI50 (A498 renal) greater than 100 µM and a TGI (A498 renal) greater than 100 µM. For the same compound, the GI50 (CAKI-1 renal) was greater than 100 µM, the TGI (CAKI-1 renal) was greater than 100 µM and the GI50 (MOLT-4 leukemia) was greater than 100 µM. The TGI (MOLT-4 leukemia) was greater than 100 µM, the GI50 (NCI-H522 lung) was greater than 100 µM and the TGI (NCI-H522 lung) was greater than 100 µM. It also gave a GI50 (A549 NSCLC) greater than 100 µM, a TGI (A549 NSCLC) greater than 100 µM and a GI50 (NCI-H23 lung) greater than 100 µM. The TGI (NCI-H23 lung) was greater than 100 µM, the GI50 (HT29 colon) was greater than 100 µM and the TGI (HT29 colon) was greater than 100 µM.

In the case of `COC(=O)[C@@H]1CSC(=S)N1C(=O)C[C@H]1CC=CC[C@H]1CC(=O)Sc1ccccc1`, the TGI (786-0 renal) is reported as 32.3 µM, the TGI (OVCAR-3 ovarian) is reported as 36.2 µM and the TGI (MOLT-4 leukemia) is reported as 16.7 µM. For the same compound, the TGI (NCI-H522 lung) was 18.2 µM, the TGI (A549 NSCLC) was 40.1 µM and the TGI (NCI-H23 lung) was 46.5 µM. The TGI (HT29 colon) was 37.4 µM.

`CC12CCC(=O)C(O1)C1C(=O)c3cc4ccccc4cc3C(=O)C12` (centres undefined) gave a GI50 (786-0 renal) of 16.3 µM, a TGI (786-0 renal) of 30 µM and a GI50 (OVCAR-4 ovarian) of 12.2 µM. The TGI (OVCAR-4 ovarian) was 41.2 µM, the GI50 (CAKI-1 renal) was 4.94 µM and the TGI (CAKI-1 renal) was 25.6 µM. It also gave a GI50 (MOLT-4 leukemia) of 10.4 µM, a TGI (MOLT-4 leukemia) of 74.1 µM and a GI50 (NCI-H522 lung) of 21.9 µM. The TGI (NCI-H522 lung) was 52.3 µM, the GI50 (A549 NSCLC) was 32.4 µM and the TGI (A549 NSCLC) was greater than 100 µM. It also gave a GI50 (NCI-H23 lung) of 15.8 µM, a TGI (NCI-H23 lung) of 31.6 µM and a GI50 (HT29 colon) of 21 µM. It also gave a TGI (HT29 colon) of 51.1 µM.

For `CC1(C)CCC2(C(=O)OC3OC(CO)C(O)C(O)C3O)CC[C@]3(C)C(=CCC4C5(C)CC[C@H](OC6OC(C(=O)O)C(O)C(O)C6O)C(C)(C)C5CCC43C)C2C1` (some centres undefined), the GI50 (786-0 renal) was 1.56 µM, the TGI (786-0 renal) was 6.19 µM and the GI50 (OVCAR-3 ovarian) was 3.27 µM. The TGI (OVCAR-3 ovarian) was greater than 50 µM, the GI50 (CAKI-1 renal) was 17.2 µM and the TGI (CAKI-1 renal) was greater than 50 µM. The GI50 (MOLT-4 leukemia) was 0.997 µM, the TGI (MOLT-4 leukemia) was 2.84 µM and the GI50 (NCI-H522 lung) was 1.72 µM. The TGI (NCI-H522 lung) was 9.71 µM, the GI50 (A549 NSCLC) was 1.83 µM and the TGI (A549 NSCLC) was 20.2 µM. The GI50 (NCI-H23 lung) was 1.48 µM, the TGI (NCI-H23 lung) was 3.73 µM and the GI50 (HT29 colon) was 2.07 µM. For the same compound, the TGI (HT29 colon) was greater than 50 µM.

Work on `C=C1C(=O)O[C@H]2C[C@@H](C)[C@@H]3CC(=O)OC[C@@]3(C)CC12` (some centres undefined) yielded a TGI (786-0 renal) greater than 100 µM, a TGI (OVCAR-3 ovarian) of 74.6 µM and a TGI (OVCAR-4 ovarian) of 54.4 µM. For the same compound, the TGI (CAKI-1 renal) was 51 µM, the TGI (MOLT-4 leukemia) was 57.3 µM and the TGI (NCI-H522 lung) was 12 µM. For the same compound, the TGI (A549 NSCLC) was greater than 100 µM, the TGI (NCI-H23 lung) was 62.5 µM and the TGI (HT29 colon) was 50.1 µM.

`Cc1ccc2c(c1)C1(C)OC(CC(N)C1O)O2` (centres undefined) showed a TGI (786-0 renal) greater than 100 µM, a TGI (OVCAR-3 ovarian) greater than 100 µM and a TGI (MOLT-4 leukemia) greater than 100 µM. The TGI (NCI-H522 lung) was greater than 100 µM, the TGI (A549 NSCLC) was greater than 100 µM and the TGI (NCI-H23 lung) was greater than 100 µM. The TGI (HT29 colon) was greater than 100 µM.

Work on `CC(=O)/C(=C\c1ccco1)C(=O)Nc1ccccc1` yielded a TGI (786-0 renal) greater than 100 µM, a TGI (OVCAR-3 ovarian) greater than 100 µM and a TGI (OVCAR-4 ovarian) greater than 100 µM. For the same compound, the TGI (CAKI-1 renal) was greater than 100 µM, the TGI (MOLT-4 leukemia) was greater than 100 µM and the TGI (NCI-H522 lung) was greater than 100 µM. The TGI (A549 NSCLC) was greater than 100 µM, the TGI (NCI-H23 lung) was greater than 100 µM and the TGI (HT29 colon) was greater than 100 µM.
